For data set [1], the system named is Hairless mice (HRS/J strain). In words: Repair of UV-B-caused skin damage in the hairless mouse. Conditions: three times a week, 10 weeks, Luna staining of elastin, total surface per 20 microscopic field. The class given is in vivo. The text has this:
Repair of UV-B-caused Skin Damage in the Hairless Mouse Hairless mice (HRS/J strain, Jackson Labs, aged 5-7 weeks at the beginning of the experiment) were irradiated three times a week with an arrangement of 8 Westinghouse irradiation lamps (FS40) which were placed about 20 cm above the animals. The radiation dose was controlled by a commercial phototherapeutic control device. The UV-B dose was chosen such that the dosage scarcely exceeded 0.06 J/cm^2, caused a minimal erythema, but no burning or scarring. After a total dose of about 3.5 J/cm^2 there resulted a significant elastosis which was evident from a histological report and which was confirmed by measuring the elastin using a radioimmunoassay for desmosin in the total skin. The desmosin content increased by two- to three-fold after 3.5 J/cm^2 UV-B irradiation. In order to make good the skin damage, the UV irradiation was interrupted and groups of animals were treated three times a week with different doses of compounds of formula I dissolved in acetone. These solutions were prepared freshly each week such that the dosage to be administered was present in […] of acetone and were applied topically to an area of about 10 cm^2 on the backs of the animals. A controlled group was treated only with acetone. After treatment for 10 weeks the animals were killed, skin preparations were prepared and the extent of the recovery was measured quantitatively by Luna staining of the elastin. In this experimental model the skin recovery is defined as the appearance of a normal dermis which extends from the epidermis to the layer of compressed elastin. The extent of the recovery was given by the width of this zone. The area of the zone on a standard length of the histological section was measured and the result was expressed as the total surface in mm^2 per 20 microscopic field.

Usually melting point stands for the temperature of the solid-liquid transition.

As for `CCCCCCCCc1cc2c(cc1/C=C/c1ccc(C(=O)O)cc1)CCC(C)(C)CC2` [Example 11, (E)-4-[2-(7,7-dimethyl-3-octyl-6,7,8,9-tetrahydro-5H-benzocyclohepten-2-yl)vinyl]benzoic acid], the melting point lay within 179.5 to 180.5 °C.

For `C=CCOc1cc2c(cc1/C=C/c1ccc(C(=O)O)cc1)C(C)(C)CCC2(C)C` [Example 22 (allyloxy), (E)-4-[2-(3-allyloxy-5,5,8,8-tetramethyl-5,6,7,8-tetrahydro-naphthalen-2-yl)-vinyl]-benzoic acid], the melting point lay in the range of 191 to 192 °C.

Compound `CCC#CCOc1cc2c(cc1/C=C/c1ccc(C(=O)O)cc1)C(C)(C)CCC2(C)C` [Example 20, (E)-4-[2-(3-pent-2-ynyloxy-5,5,8,8-tetramethyl-5,6,7,8-tetrahydro-naphthalen-2-yl)-vinyl]-benzoic acid] returned a melting point of 144 to 145 °C.

Consider `CCCCCc1cc2c(cc1/C=C/C=C/C(C)=C/C(=O)O)C(C)(C)CCC2(C)C` [Example 5, (2E,4E,6E)-7-(3-Pentyl-5,5,8,8-tetramethyl-5,6,7,8-tetrahydro-naphthalen-2-yl)-3-methyl-hepta-2,4,6-trienoic acid], for which the melting point was in the range of 164 to 166 °C.

Regarding `CCCCc1cc2c(cc1/C=C/c1ccc(C(=O)O)cc1)C(C)(C)CCCC2` [Example 13 (fourth compound), (E)-4-[2-(3-butyl-9,9-dimethyl-6,7,8,9-tetrahydro-5H-benzocyclohepten-2-yl)vinyl]benzoic acid], the melting point lay within 81 to 83 °C.

The compound `CCCCCOc1cc2c(cc1/C=C/c1ccc(C(=O)O)cc1)C(C)(C)CCC2(C)C` [Example 8, (E)-4-[2-(5,5,8,8-Tetramethyl-3-pentoxy-5,6,7,8-tetrahydro-naphthalen-2-yl)vinyl]benzoic acid] displayed a melting point of 148 to 149 °C.

Take `CCCCCCCCc1cc2c(cc1/C=C/c1ccc(C(=O)O)cc1)CCC(C)(C)CC2C` (racemic) [Example 12, Rac-(E)-4-[2-(5,7,7-trimethyl-3-octyl-6,7,8,9-tetrahydro-5H-benzocyclohepten-2-yl)vinyl]benzoic acid]: the melting point lay in the range of 182 to 183 °C.

For the compound `CCCCc1cc2c(cc1/C=C/c1ccc(C(=O)O)cc1)C(C)(C)CCC2(C)C` [Compound B, 4-[(E)-2-(3-Butyl-5,5,8,8-tetramethyl-5,6,7,8-tetrahydro-naphth-2-yl)vinyl]benzoic Acid], the “Recovery Zone” value in data set [1] (0.5 μg topically in acetone) amounted to 15.6 ± 2.74 mm^2 • 10^−3; in data set [1] (2 μg topically in acetone), 20.5 ± 7.17 mm^2 • 10^−3.

For `CCCCc1cc2c(cc1/C=C/c1ccc(C(=O)O)cc1)CCCCC2(C)C` [Example 13, (E)-4-[2-(3-Butyl-5,5-dimethyl-6,7,8,9-tetrahydro-5H-benzocyclohepten-2-yl)vinyl]benzoic acid], the melting point lay in the range of 184 to 186 °C.

In turn, `CCCCCC(=O)c1cc2c(cc1/C=C/c1ccc(C(=O)O)cc1)C(C)(C)CCC2(C)C` [Example 16, (E)-4-[2-(3-hexanoyl-5,5,8,8-tetramethyl-5,6,7,8-tetrahydro-naphthalen-2-yl)vinyl]benzoic acid] came in with a melting point of 118 to 119 °C.

Regarding `CCCCCCc1cc2c(cc1/C=C/c1ccc(C(=O)O)cc1)CCCCC2(C)C` [Example 13 (third compound), (E)-4-[2-(3-hexyl-5,5-dimethyl-6,7,8,9-tetrahydro-5H-benzocyclohepten-2-yl)vinyl]benzoic acid], the melting point was in the range of 133 to 134 °C.

Compound `CCCCCc1cc2c(cc1/C=C/c1ccc(C(=O)O)cc1)C(C)(C)CCC2(C)C` [Example 2, (E)-4-[2-(3-Pentyl-5,5,8,8-tetramethyl-5,6,7,8-tetrahydro-naphthalen-2-yl)vinyl]benzoic acid] had a melting point of 173 to 174 °C.

`CCCCCCCOc1cc2c(cc1/C=C/c1ccc(C(=O)O)cc1)[C@]1(C)CCC[C@@]2(C)[C@@H]1O` (racemic) [Example 14, (E)-4-[2-[(5RS,9SR,10RS)-3-heptyloxy-10-hydroxy-5,9-dimethyl-6,7,8,9-tetrahydro-5,9-methano-5H-benzocyclohepten-2-yl]vinyl]benzoic acid] came in with a melting point of 89 to 90 °C.

As to `CCc1cc2c(cc1/C=C/c1ccc(C(=O)O)cc1)C(C)(C)CCC2(C)C` [Compound D, p-[(E)-2-(3-Ethyl-5,6,7,8-tetrahydro-5,5,8,8-tetramethyl-2-naphthyl)vinyl]benzoic Acid], the figures for the “Recovery Zone” value in data set [1] (0.5 μg topically in acetone), in data set [1] (2 μg topically in acetone) and in data set [1] (10 μg topically in acetone) were 15.5 ± 4.9 mm^2 • 10^−3, 19.1 ± 4.9 mm^2 • 10^−3 and 46.5 ± 6.9 mm^2 • 10^−3, respectively.

The compound `CCCCCCc1cc2c(cc1/C=C/c1ccc(C(=O)O)cc1)C(C)(C)CCC2(C)C` [Compound A, p-[(E)-2-(3-Hexyl-5,6,7,8-tetrahydro-5,5,8,8-tetramethyl-2-naphthyl)vinyl]benzoic Acid] returned a melting point of 134 to 136 °C. Also, the “Recovery Zone” value in data set [1] (0.05 μg topically in acetone) came to 9.8 ± 2.8 mm^2 • 10^−3. For the same compound, the “Recovery Zone” value in data set [1] (2 μg topically in acetone) is 27.2 ± 2.6 mm^2 • 10^−3. Also, the “Recovery Zone” value in data set [1] (10 μg topically in acetone) worked out at 35.9 ± 7.5 mm^2 • 10^−3.

Turning to `CCCCCOc1cc2c(cc1/C=C/C=C/C(C)=C/C(=O)O)C(C)(C)CCC2(C)C` [Example 10 (2E isomer), (2E,4E,6E)-3-methyl-7-(5,5,8,8-tetramethyl-3-pentoxy-5,6,7,8-tetrahydro-naphthalen-2-yl)-hepta-2,4,6-trienoic acid], the melting point lay within 162 to 163 °C.

Consider `C=CCOc1cc2c(cc1/C=C/C=C/C(C)=C/C(=O)O)C(C)(C)CCC2(C)C` [Example 23 (allyloxy), (2E,4E,6E)-7-(3-allyloxy-5,5,8,8-tetramethyl-5,6,7,8-tetrahydro-naphthalen-2-yl)-3-methyl-hepta-2,4,6-trienoic acid], for which the melting point was in the range of 193 to 194 °C.

`CCCCCCC1C2=C(CC1/C=C/c1ccc(C(=O)O)cc1)C(C)(C)CC=C2` (stereo not shown) [Example 13 (second compound), (E)-4-[2-(3-Hexyl-7,7-dimethyl-indan-2-yl)vinyl]benzoic acid]: the melting point fell in the range of 149 to 150 °C.

Consider `CCCCCCc1cc2c(cc1/C=C/C=C/C(C)=C/C(=O)O)C(C)(C)CCC2(C)C` [Compound C, (all E)-7-(3-Hexyl-5,5,8,8-tetramethyl-5,6,7,8-tetrahydro-naphthalen-2-yl)-3-methyl-hepta-2,4,6-trienoic Acid], for which the “Recovery Zone” value in data set [1] (2 μg topically in acetone) was determined as 32.8 ± 6.72 mm^2 • 10^−3; in data set [1] (10 μg topically in acetone), 59.5 ± 6.71 mm^2 • 10^−3.

As to `CCCCCCCCc1cc2c(cc1/C=C/c1ccc(C(=O)O)cc1)C(C)(C)CCC2(C)C` [Compound E, p-[(E)-2-(3-Octyl-5,6,7,8-tetrahydro-5,5,8,8-tetramethyl-2-naphthyl)vinyl]benzoic Acid], the “Recovery Zone” value in data set [1] (0.5 μg topically in acetone) stood at 7.48 ± 1.7 mm^2 • 10^−3; in data set [1] (2 μg topically in acetone), 4.70 ± 2.0 mm^2 • 10^−3; in data set [1] (10 μg topically in acetone) it was 22.2 ± 8.3 mm^2 • 10^−3.

Take `C/C=C/COc1cc2c(cc1/C=C/c1ccc(C(=O)O)cc1)C(C)(C)CCC2(C)C` [Example 22 (but-2-enyloxy), 4-[(E)-2-((E)-3-but-2-enyloxy-5,5,8,8-tetramethyl-5,6,7,8-tetrahydro-naphthalen-2-yl)-vinyl]-benzoic acid]: the melting point fell in the range of 178 to 180 °C.

For the compound `CCCCOc1cc2c(cc1/C=C/C=C/C(C)=C/C(=O)O)[C@]1(C)CCC[C@@]2(C)[C@@H]1O` (racemic) [Example 19, (2E,4E,6E)-(5RS,9SR,10RS)-7-(3-butoxy-10-hydroxy-5,9-dimethyl-6,7,8,9-tetrahydro-5,9-methano-5H-benzocyclohepten-2-yl)-3-methyl-hepta-2,4,6-trienoic acid], the melting point is 176 to 178 °C.

In turn, `CCCCCc1cc2c(cc1C#C/C=C/C(C)=C/C(=O)O)C(C)(C)CCC2(C)C` [Example 17 (2E,4E), (2E,4E)-3-methyl-7-(5,5,8,8-tetramethyl-3-pentyl-5,6,7,8-tetrahydro-naphthalen-2-yl)-hepta-2,4-dien-6-ynoic acid] showed a melting point of 155 to 156 °C.

Take `CCC#CCOc1cc2c(cc1/C=C/C=C/C(C)=C/C(=O)O)C(C)(C)CCC2(C)C` [Example 21, (2E,4E,6E)-3-methyl-7-(3-pent-2-ynyloxy-5,5,8,8-tetramethyl-5,6,7,8-tetrahydro-naphthalen-2-yl)-hepta-2,4,6-trienoic acid]: the melting point is 208 to 209 °C.

Regarding `CCCCCc1cc2c(cc1/C=C/C=C/C(C)=C\C(=O)O)C(C)(C)CCC2(C)C` [Example 6, (2Z,4E,6E)-7-(3-Pentyl-5,5,8,8-tetramethyl-5,6,7,8-tetrahydro-naphthalen-2-yl)-3-methyl-hepta-2,4,6-trienoic acid], the melting point lay within 170 to 174 °C.
